Among the test systems are T-47D breast; UACC-257 melanoma; KM12 colon; NCI-H522 lung; PC-3 prostate; LOX IMVI melanoma; NCI/ADR-RES ovarian; SK-OV-3 ovarian; NCI-H460 lung; SF-295 CNS.
Holding throughout (experiment): growth of human tumour cells (NCI), 48 h

Several values for one entry are separate records, joined by “and”; a condition that tells them apart may be missing. Identical values can stand only once.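 Values below derive from 48-hour exposures of cells grown in 96-well plates, with endpoints linearly interpolated between the two concentrations bracketing the appropriate inhibition level. GI50: concentration for 50% inhibition of growth. Definition used: TGI = concentration required for complete inhibition of growth.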

As to `O=C(c1ccc(C(F)(F)F)c(Cl)c1)N(Cc1ccc(Cl)cc1)c1ccc(-c2cc(C(F)(F)F)[nH]n2)c(O)c1`, the GI50 with T-47D breast is 0.948 µM; in the test on UACC-257 melanoma, 1.04 µM; in the test on KM12 colon, 0.951 µM; with NCI-H522 lung it was 0.893 µM; in the test with PC-3 prostate it was 0.897 µM; in the test with LOX IMVI melanoma, 0.819 µM. The GI50 in the test with NCI/ADR-RES ovarian is 1.11 µM; in the test on SK-OV-3 ovarian it was 1.37 µM; in the test with NCI-H460 lung, 1.16 µM; in the test with SF-295 CNS it was 1.08 µM. The TGI in the test on T-47D breast stood at 3.43 µM; in the test on UACC-257 melanoma, 3.57 µM; in the test on KM12 colon it was 2.19 µM; in the test with NCI-H522 lung it was 3.31 µM; in the test with PC-3 prostate, 2.91 µM; with LOX IMVI melanoma it was 1.5 µM. The TGI with NCI/ADR-RES ovarian worked out at 2.99 µM; in the test with SK-OV-3 ovarian it was 4.89 µM; in the test with NCI-H460 lung it was 3.12 µM; in the test on SF-295 CNS, 2.87 µM.
Take `Cn1cc(C2=C(c3cn(-c4ccccc4)c4ccccc34)C(=O)NC2=O)c2ccccc21`: the GI50 was 7.53 µM in the test on T-47D breast; over 25 µM in the test on UACC-257 melanoma; 8.12 µM in the test with KM12 colon; 6.61 µM with NCI-H522 lung; 9.86 µM in the test on PC-3 prostate; 19.2 µM with LOX IMVI melanoma. In addition, the GI50 in the test on NCI/ADR-RES ovarian is 11.2 µM; with SK-OV-3 ovarian it was over 25 µM; in the test on NCI-H460 lung it was 17.7 µM; in the test on SF-295 CNS, 13.3 µM. The TGI in the test with T-47D breast, in the test on UACC-257 melanoma, with KM12 colon, with NCI-H522 lung, in the test on PC-3 prostate and in the test on LOX IMVI melanoma was over 25 µM each time. Also, the TGI in the test with NCI/ADR-RES ovarian, in the test on SK-OV-3 ovarian, in the test on NCI-H460 lung and in the test with SF-295 CNS was over 25 µM throughout.
With `COc1cc(/C=C2\CCC/C(=C\c3ccc(O)c(OC)c3)C2=O)ccc1O`, the GI50 with T-47D breast is 1.91 µM; in the test with UACC-257 melanoma, 1.71 µM; with KM12 colon it was 1.25 µM; in the test on NCI-H522 lung, 1.12 µM; in the test with PC-3 prostate it was 3.14 µM; in the test with LOX IMVI melanoma it was 1.46 µM. Moreover, the GI50 with NCI/ADR-RES ovarian was 2.34 µM; in the test on SK-OV-3 ovarian, 2.36 µM; with NCI-H460 lung it was 2.05 µM; with SF-295 CNS, 1.71 µM. In addition, the TGI was 12.2 µM and 7.41 µM in the test with T-47D breast; 27 µM and 6.74 µM in the test with UACC-257 melanoma; 5.83 µM and 2.62 µM with KM12 colon; 3.23 µM and 2.66 µM in the test with NCI-H522 lung; 23.7 µM and 13.6 µM in the test on PC-3 prostate; 3.49 µM and 2.83 µM with LOX IMVI melanoma. Moreover, the TGI in the test with NCI/ADR-RES ovarian is 12.6 µM and 9.79 µM; with SK-OV-3 ovarian, 15.5 µM and 6.31 µM; in the test with NCI-H460 lung, 11.2 µM and 4.96 µM; with SF-295 CNS, 9.16 µM and 5.15 µM.
For the molecule `COc1ccc2c3c1OC1C(OC)(OC)C=C[C@@]4(Br)[C@@H](C2)N(CC2CC2)CC[C@]314` (stereo not given in full), the TGI was over 100 µM with T-47D breast; over 100 µM in the test with UACC-257 melanoma; over 100 µM in the test on KM12 colon; 47.8 µM with NCI-H522 lung; over 100 µM with PC-3 prostate; over 100 µM with LOX IMVI melanoma. The TGI with NCI/ADR-RES ovarian, with SK-OV-3 ovarian, in the test on NCI-H460 lung and in the test with SF-295 CNS was over 100 µM in each case.

Values taken from PubChem BioAssay (NCI).
